Measured values published in ChEMBL document CHEMBL4339189, “Dissymmetric pyridyl-substituted 3,5-bis(arylidene)-4-piperidones as anti-hepatoma agents by inhibiting NF-κB pathway activation” (Eur J Med Chem, 2019).
The source made the active and inactive calls. No cut-off for these calls is given here.

What was measured:
[1] = test system: RAW264.7; assay: Antiinflammatory activity in mouse RAW264.7 cells assessed as inhibition of LPS-stimulated TNF-alpha production at 6.0 uM preincubated for 2 hrs followed by LPS stimulaton measured after 22 hrs by ELISA relative to control; format: functional
[2] = test system: RAW264.7; assay: Cytotoxicity against mouse RAW264.7 cells assessed as reduction in cell viability at 6.0 uM incubated for 24 hrs by MTT assay; format: cell-based; details: raw264.7, 24 h
[3] = test system: QGY-7703; assay: Cytotoxicity against human QGY7703 cells assessed as reduction in cell viability incubated for 24 hrs by MTT assay; format: functional, cell-based; details: QGY-7703, 24 h
[4] = test system: RAW264.7; assay: Antiinflammatory activity in mouse RAW264.7 cells assessed as inhibition of LPS-stimulated IL-6 production 6.0 uM preincubated for 2 hrs followed by LPS stimulaton measured after 22 hrs by ELISA relative to control; format: functional
[5] = Cytotoxicity against human HHL5 cells assessed as reduction in cell viability incubated for 24 hrs by MTT assay; format: cell-based; details: HHL-5, 24 h
[6] = test system: L02; assay: Cytotoxicity against human LO2 cells assessed as reduction in cell viability incubated for 24 hrs by MTT assay; format: cell-based; details: L02, 24 h
[7] = test system: SMMC-7721; assay: Cytotoxicity against human SMMC7721 cells assessed as reduction in cell viability incubated for 24 hrs by MTT assay; format: functional, cell-based; details: SMMC-7721, 24 h
[8] = test system: HepG2; assay: Cytotoxicity against human HepG2 cells assessed as reduction in cell viability incubated for 24 hrs by MTT assay; format: functional, cell-based; details: HepG2, 24 h

| Structure (SMILES) | inhibition [1] | Activity [2] | IC50 [3] [µM] | inhibition [4] | IC50 [5] [µM] | IC50 [6] [µM] | IC50 [7] [µM] | IC50 [8] [µM] | inhibition at 6 µM [1] [%] | inhibition (INH) [4] [%] |
| --- | --- | --- | --- | --- | --- | --- | --- | --- | --- | --- |
| O=C1/C(=C/c2ccncc2)CN(S(=O)(=O)c2ccccc2)C/C1=C\c1ccccc1F | inactive | Non-Toxic | 8.4 | inactive | > 20 | 15.9 | 17.5 | 5.8 |  |  |
| O=C1/C(=C/c2cccnc2)CN(S(=O)(=O)c2ccc(C(F)(F)F)cc2)C/C1=C\c1ccccc1F | Active | Non-Toxic | 4.5 | Active | 14.3 | 11.3 | 7.9 | 2.4 |  |  |
| CC(=O)Nc1ccc(S(=O)(=O)N2C/C(=C\c3cccnc3)C(=O)/C(=C/c3ccccc3C(F)(F)F)C2)cc1 | Active | Non-Toxic | 5.38 | Active | > 20 | 15.3 | 9.83 | 4.33 |  |  |
| N#Cc1ccc(S(=O)(=O)N2C/C(=C\c3ccncc3)C(=O)/C(=C/c3ccccc3C(F)(F)F)C2)cc1 |  | Non-Toxic | 6.29 |  | 19.7 | 17.6 | 9.61 | 5.92 |  |  |
| O=C1/C(=C/c2cccnc2)CN(S(=O)(=O)c2ccc([N+](=O)[O-])cc2)C/C1=C\c1ccccc1C(F)(F)F | Active | Non-Toxic | 7.66 | Active | 14.1 | 15.7 | 15.9 | 9.37 |  |  |
| CN1C/C(=C\c2ccncc2)C(=O)/C(=C/c2ccc(F)cc2Br)C1 | Active | Non-Toxic | 6.9 | Active | 11.6 | 12.4 | 23.8 | 9.2 |  |  |
| CN1C/C(=C\c2ccc(C#N)cc2)C(=O)/C(=C/c2cccnc2)C1 | Active | Non-Toxic | > 20 | Active | > 20 | > 20 | 13.6 | 12.7 |  |  |
| O=C1/C(=C/c2ccncc2)CN(S(=O)(=O)c2ccc(F)cc2)C/C1=C\c1ccccc1F | inactive | Non-Toxic | 9.1 | inactive | 15.4 | 15.6 | > 20 | 20.3 |  |  |
| Cc1ccc(S(=O)(=O)N2C/C(=C\c3cccnc3)C(=O)/C(=C/c3ccccc3C(F)(F)F)C2)cc1 | Active | Non-Toxic | 6.17 | Active | 11.1 | 12.3 | 6.7 | 2.93 |  |  |
| CN1C/C(=C\c2ccncc2)C(=O)/C(=C/c2ccccc2C(F)(F)F)C1 |  | Non-Toxic | 4.5 |  | 10.4 | 15.8 | 4.1 | 3.3 | < 30 | <30 |
| O=C1/C(=C/c2cccnc2)CN(S(=O)(=O)c2ccc(Cl)cc2)C/C1=C\c1ccccc1F | inactive | Non-Toxic | 12.1 | inactive | > 20 | > 20 | 16.1 | 12.4 |  |  |
| CC(=O)Nc1ccc(S(=O)(=O)N2C/C(=C\c3ccncc3)C(=O)/C(=C/c3ccccc3C(F)(F)F)C2)cc1 |  | Non-Toxic | 5.56 |  | 8.87 | 10.1 | 5.76 | 4.84 |  |  |
| COc1cc(/C=C2\CN(C)C/C(=C\c3ccncc3)C2=O)cc(OC)c1OC | Active | Non-Toxic | 5.9 | Active | 12.3 | 16.4 | 9.13 | 9.8 |  |  |
| O=C1/C(=C/c2cccnc2)CN(S(=O)(=O)c2ccc(F)cc2)C/C1=C\c1ccccc1C(F)(F)F | Active | Non-Toxic | 6.03 | Active | 12.1 | 16.1 | 6.39 | 2.34 |  |  |
| O=C1/C(=C/c2cccnc2)CN(S(=O)(=O)c2ccc(F)cc2)C/C1=C\c1ccccc1F | inactive | Non-Toxic | 15.3 | inactive | 12.6 | 15.6 | 9.9 | 15.6 |  |  |
| COc1cc(/C=C2\CN(C)C/C(=C\c3cccnc3)C2=O)cc(OC)c1 | Active | Non-Toxic | 7.9 | Active | > 20 | 18.4 | 17.9 | 6.91 |  |  |
| Cc1ccc(S(=O)(=O)N2C/C(=C\c3ccncc3)C(=O)/C(=C/c3ccccc3C(F)(F)F)C2)cc1 |  | Non-Toxic | 5.09 |  | 15.9 | 12.8 | 5.59 | 4.64 |  |  |

| Structure (SMILES) | inhibition [1] | Activity [2] | IC50 [3] [µM] | inhibition [4] | IC50 [5] [µM] | IC50 [6] [µM] | IC50 [7] [µM] | IC50 [8] [µM] | inhibition at 6 µM [1] [%] | inhibition (INH) [4] [%] |
| --- | --- | --- | --- | --- | --- | --- | --- | --- | --- | --- |
| O=C1/C(=C/c2cccnc2)CN(S(=O)(=O)c2ccc(Br)cc2)C/C1=C\c1ccccc1F | inactive | Non-Toxic | 12.8 | inactive | 14.2 | 14.6 | 9.1 | 8.7 |  |  |
| O=C1/C(=C/c2ccccc2F)CNC/C1=C\c1ccccc1F |  |  | 4.97 |  | 14.5 | 10.2 | 8.8 | 3.33 |  |  |
| O=C1/C(=C/c2ccncc2)CN(S(=O)(=O)c2ccc(C(F)(F)F)cc2)C/C1=C\c1ccccc1F | Active | Non-Toxic | 9.5 | Active | 13.4 | 18.6 | 11.1 | 4.03 |  |  |
| N#Cc1ccc(S(=O)(=O)N2C/C(=C\c3cccnc3)C(=O)/C(=C/c3ccccc3C(F)(F)F)C2)cc1 | Active | Non-Toxic | 6.15 | Active | 11.2 | 13.2 | 9.65 | 5.06 |  |  |
| O=C1/C(=C/c2ccncc2)CN(S(=O)(=O)c2ccc(Cl)cc2)C/C1=C\c1ccccc1C(F)(F)F |  | Non-Toxic | 12.7 |  | 11 | 14.9 | 5.51 | 7.19 |  |  |
| O=C1/C(=C/c2ccncc2)CN(S(=O)(=O)c2ccc(C(F)(F)F)cc2)C/C1=C\c1ccccc1C(F)(F)F |  | Non-Toxic | 4.68 |  | 11.7 | 13.8 | 3.84 | 3.24 |  |  |
| O=C1/C(=C/c2ccncc2)CNC/C1=C\c1ccccc1F | inactive | Non-Toxic | 14.2 | inactive | 13.9 | 14.7 | 18.4 | 8.2 |  |  |
| N#Cc1ccc(S(=O)(=O)N2C/C(=C\c3cccnc3)C(=O)/C(=C/c3ccccc3F)C2)cc1 | inactive | Non-Toxic | 15.8 | inactive | 15.5 | > 20 | 15.4 | 6.6 |  |  |
| O=C1/C(=C/c2cccnc2)CN(S(=O)(=O)c2ccccc2)C/C1=C\c1ccccc1F | inactive | Non-Toxic | 4.8 | inactive | 14 | 15.3 | 19.1 | 8.21 |  |  |
| CN1C/C(=C\c2ccncc2)C(=O)/C(=C/c2ccc(C(F)(F)F)cc2)C1 | Active | Non-Toxic | 10.4 | Active | 12.2 | 17.4 | 17.7 | 8.2 |  |  |
| O=C1/C(=C/c2ccncc2)CN(S(=O)(=O)c2ccc(F)cc2)C/C1=C\c1ccccc1C(F)(F)F |  | Non-Toxic | 7.7 |  | 12 | 12.9 | 9.27 | 4.01 |  |  |
| O=C1/C(=C/c2ccncc2)CN(S(=O)(=O)c2ccc(Br)cc2)C/C1=C\c1ccccc1C(F)(F)F |  | Non-Toxic | 7.06 |  | 9.32 | 12.6 | 10.5 | 14.5 |  |  |
| O=C1/C(=C/c2ccncc2)CN(S(=O)(=O)c2ccc([N+](=O)[O-])cc2)C/C1=C\c1ccccc1C(F)(F)F |  | Non-Toxic | 9.73 |  | > 20 | 18.6 | > 20 | 13.4 |  |  |
| S=C(S)N1CCCC1 | Active |  |  | Active |  |  |  |  |  |  |
| COc1cc(/C=C/C(=O)CC(=O)/C=C/c2ccc(O)c(OC)c2)ccc1O [CURCUMIN] |  |  | 23.9 |  | 24.2 | 22.7 | 16.7 | 17.4 |  |  |
| O=C1/C(=C/c2ccncc2)CN(S(=O)(=O)c2ccccc2)C/C1=C\c1ccccc1C(F)(F)F |  | Non-Toxic | 6.21 |  | 12.1 | 12.3 | 6.54 | 7.02 |  |  |
